Results taken from PubChem BioAssay AID1919015 (Molecular Pharmacology Branch, DTP, NCI, 2023).

Tested on: OVCAR-5 complex spheroids with HUVEC/MSC, viability, % test/control
Test: Anticancer human tumor OVCAR-5 cell line growth inhibition [AhR];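 further: spheroids exposed to compounds for 7 days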;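 on viability, T/C: 100% = DMSO vehicle control wells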
Details: for IC50: curve of first compound; for viability, T/C: stronger effect = lower value
Method in brief: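 Complex tumor spheroids co-cultured with HUVEC and human MSC stroma; AhR antagonists tested in combination with standard-of-care and investigational agents. Top concentration at or near clinical Cmax (else 10 microM), half-log dilutions; growth expressed as percent test/control.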

[1] = second compound 0.1 µM, first compound 0.0316 µM
[2] = second compound 0.1 µM, first compound 0.1 µM
[3] = second compound 0.1 µM, first compound 0.316 µM
[4] = second compound 0.1 µM, first compound 1 µM
[5] = second compound 0.1 µM, first compound 3.16 µM
[6] = second compound 0.1 µM, first compound 10 µM
[7] = second compound 0.316 µM, first compound 0.0316 µM
[8] = second compound 0.316 µM, first compound 0.1 µM
[9] = second compound 0.316 µM, first compound 0.316 µM
[10] = second compound 0.316 µM, first compound 1 µM
[11] = second compound 0.316 µM, first compound 3.16 µM
[12] = second compound 0.316 µM, first compound 10 µM
[13] = second compound 1 µM, first compound 0.0316 µM
[14] = second compound 1 µM, first compound 0.1 µM
[15] = second compound 1 µM, first compound 0.316 µM
[16] = second compound 1 µM, first compound 1 µM
[17] = second compound 1 µM, first compound 3.16 µM
[18] = second compound 1 µM, first compound 10 µM
[19] = second compound 3.16 µM, first compound 0.0316 µM
[20] = second compound 3.16 µM, first compound 0.1 µM
[21] = second compound 3.16 µM, first compound 0.316 µM
[22] = second compound 3.16 µM, first compound 1 µM
[23] = second compound 3.16 µM, first compound 3.16 µM
[24] = second compound 3.16 µM, first compound 10 µM
[25] = second compound 10 µM, first compound 0.0316 µM
[26] = second compound 10 µM, first compound 0.1 µM
[27] = second compound 10 µM, first compound 0.316 µM
[28] = second compound 10 µM, first compound 1 µM
[29] = second compound 10 µM, first compound 3.16 µM
[30] = second compound 10 µM, first compound 10 µM

CC(C)CC(NC(=O)C(Cc1ccccc1)NC(=O)c1cnccn1)B(O)O (stereo not given) + Cc1ccccc1N=Nc1ccc(NC(=O)c2ccnn2C)c(C)c1
IC50 (second compound 0.1 µM): 0.0494 µM | IC50 (second compound 0.316 µM): 0.0482 µM | IC50 (second compound 1 µM): 0.05 µM | IC50 (second compound 3.16 µM): 0.0482 µM | IC50 (second compound 10 µM): 0.0554 µM | viability, T/C (second compound 0.1 µM, first compound 0.000949 µM): 101% | viability, T/C (second compound 0.1 µM, first compound 0.003 µM): 105% | viability, T/C (second compound 0.1 µM, first compound 0.00949 µM): 96.9% | viability, T/C (second compound 0.1 µM, first compound 0.03 µM): 69% | viability, T/C (second compound 0.1 µM, first compound 0.0949 µM): 25% | viability, T/C (second compound 0.1 µM, first compound 0.3 µM): 19.3% | viability, T/C (second compound 0.316 µM, first compound 0.000949 µM): 104% | viability, T/C (second compound 0.316 µM, first compound 0.003 µM): 108% | viability, T/C (second compound 0.316 µM, first compound 0.00949 µM): 98.7% | viability, T/C (second compound 0.316 µM, first compound 0.03 µM): 67.1% | viability, T/C (second compound 0.316 µM, first compound 0.0949 µM): 25.7% | viability, T/C (second compound 0.316 µM, first compound 0.3 µM): 17.6% | viability, T/C (second compound 1 µM, first compound 0.000949 µM): 108% | viability, T/C (second compound 1 µM, first compound 0.003 µM): 112% | viability, T/C (second compound 1 µM, first compound 0.00949 µM): 101% | viability, T/C (second compound 1 µM, first compound 0.03 µM): 69.4% | viability, T/C (second compound 1 µM, first compound 0.0949 µM): 25.5% | viability, T/C (second compound 1 µM, first compound 0.3 µM): 19.6% | viability, T/C (second compound 3.16 µM, first compound 0.000949 µM): 111% | viability, T/C (second compound 3.16 µM, first compound 0.003 µM): 112% | viability, T/C (second compound 3.16 µM, first compound 0.00949 µM): 105% | viability, T/C (second compound 3.16 µM, first compound 0.03 µM): 66.1% | viability, T/C (second compound 3.16 µM, first compound 0.0949 µM): 26.9% | viability, T/C (second compound 3.16 µM, first compound 0.3 µM): 21.5% | viability, T/C (second compound 10 µM, first compound 0.000949 µM): 98.9% | viability, T/C (second compound 10 µM, first compound 0.003 µM): 105% | viability, T/C (second compound 10 µM, first compound 0.00949 µM): 93.6% | viability, T/C (second compound 10 µM, first compound 0.03 µM): 73.2% | viability, T/C (second compound 10 µM, first compound 0.0949 µM): 29.3% | viability, T/C (second compound 10 µM, first compound 0.3 µM): 23.5%

COc1cc(Nc2ncc3c(n2)-c2ccc(Cl)cc2C(c2c(F)cccc2OC)=NC3)ccc1C(=O)O + Cc1ccccc1N=Nc1ccc(NC(=O)c2ccnn2C)c(C)c1
IC50 (second compound 0.1 µM): 2.34 µM | IC50 (second compound 0.316 µM): 2.97 µM | IC50 (second compound 1 µM): 4.99 µM | IC50 (second compound 3.16 µM): 6.14 µM | IC50 (second compound 10 µM): 6.34 µM | viability, T/C [1]: 89.5% | viability, T/C [2]: 81.7% | viability, T/C [3]: 60.2% | viability, T/C [4]: 57.2% | viability, T/C [5]: 50.3% | viability, T/C [6]: 42% | viability, T/C [7]: 89.4% | viability, T/C [8]: 86.8% | viability, T/C [9]: 64.2% | viability, T/C [10]: 59.5% | viability, T/C [11]: 52.3% | viability, T/C [12]: 41.7% | viability, T/C [13]: 91.2% | viability, T/C [14]: 87.8% | viability, T/C [15]: 68.5% | viability, T/C [16]: 64.4% | viability, T/C [17]: 55.4% | viability, T/C [18]: 43.7% | viability, T/C [19]: 97.6% | viability, T/C [20]: 91.3% | viability, T/C [21]: 74.8% | viability, T/C [22]: 68.1% | viability, T/C [23]: 54.5% | viability, T/C [24]: 46.2% | viability, T/C [25]: 93.3% | viability, T/C [26]: 86.4% | viability, T/C [27]: 74.2% | viability, T/C [28]: 67.2% | viability, T/C [29]: 54.7% | viability, T/C [30]: 46.6%

CC1COCCN1c1cc(-c2ccnn2C)c2ccnc(-c3ccn[nH]3)c2n1 (stereo not given) + Cc1cncc(-c2nc(NCCc3c[nH]c4ccccc34)c3ncn(C(C)C)c3n2)c1
IC50 (second compound 0.1 µM): 0.273 µM | IC50 (second compound 0.316 µM): 0.282 µM | IC50 (second compound 1 µM): 0.265 µM | IC50 (second compound 3.16 µM): 0.183 µM | IC50 (second compound 10 µM): < 0.00316 µM | viability, T/C (second compound 0.1 µM, first compound 0.00316 µM): 107% | viability, T/C (second compound 0.1 µM, first compound 0.01 µM): 103% | viability, T/C [1]: 103% | viability, T/C [2]: 83% | viability, T/C [3]: 45.2% | viability, T/C [4]: 32.9% | viability, T/C (second compound 0.316 µM, first compound 0.00316 µM): 106% | viability, T/C (second compound 0.316 µM, first compound 0.01 µM): 104% | viability, T/C [7]: 105% | viability, T/C [8]: 85% | viability, T/C [9]: 46.3% | viability, T/C [10]: 32.9% | viability, T/C (second compound 1 µM, first compound 0.00316 µM): 97.3% | viability, T/C (second compound 1 µM, first compound 0.01 µM): 99.2% | viability, T/C [13]: 100% | viability, T/C [14]: 78.2% | viability, T/C [15]: 45.6% | viability, T/C [16]: 33.9% | viability, T/C (second compound 3.16 µM, first compound 0.00316 µM): 80.8% | viability, T/C (second compound 3.16 µM, first compound 0.01 µM): 87.4% | viability, T/C [19]: 84.2% | viability, T/C [20]: 65.2% | viability, T/C [21]: 36.5% | viability, T/C [22]: 30.1% | viability, T/C (second compound 10 µM, first compound 0.00316 µM): 12.8% | viability, T/C (second compound 10 µM, first compound 0.01 µM): 12.8% | viability, T/C [25]: 13.7% | viability, T/C [26]: 10.6% | viability, T/C [27]: 6.62% | viability, T/C [28]: 7.97%

COc1cc(C2c3cc4c(cc3C(OC3OC5COC(C)OC5C(O)C3O)C3COC(=O)C23)OCO4)cc(OC)c1O (stereo not given) + Cc1ccccc1N=Nc1ccc(NC(=O)c2ccnn2C)c(C)c1
IC50 (second compound 0.1 µM): 2.09 µM | IC50 (second compound 0.316 µM): 2.25 µM | IC50 (second compound 1 µM): 2.5 µM | IC50 (second compound 3.16 µM): 2.75 µM | IC50 (second compound 10 µM): 2.91 µM | viability, T/C [1]: 105% | viability, T/C [2]: 104% | viability, T/C [3]: 98.8% | viability, T/C [4]: 68.3% | viability, T/C [5]: 40.4% | viability, T/C [6]: 32.1% | viability, T/C [7]: 114% | viability, T/C [8]: 114% | viability, T/C [9]: 103% | viability, T/C [10]: 68.8% | viability, T/C [11]: 43.4% | viability, T/C [12]: 32.9% | viability, T/C [13]: 115% | viability, T/C [14]: 116% | viability, T/C [15]: 105% | viability, T/C [16]: 73.5% | viability, T/C [17]: 44.1% | viability, T/C [18]: 36.1% | viability, T/C [19]: 112% | viability, T/C [20]: 121% | viability, T/C [21]: 110% | viability, T/C [22]: 77.1% | viability, T/C [23]: 47.9% | viability, T/C [24]: 38.2% | viability, T/C [25]: 105% | viability, T/C [26]: 107% | viability, T/C [27]: 98% | viability, T/C [28]: 68.8% | viability, T/C [29]: 51.8% | viability, T/C [30]: 38.9%
